Series [1] concerns Vero cells. To be noted: read-out: VERO IC50.
Method: (§1) Compounds were solubilized in DMSO and assayed as a 10-point 3-fold serial dilution. Compounds were incubated with cells for 2 days at 37 °C, 5% CO2. CellTiter-Glo Reagent (Promega) was added and relative luminescent units (RLU) measured.
The conditions of series [2]: for CL mouse MEAN: microsomes.
For the next series, the system named is M. tuberculosis H37Rv. Put plainly: microbe, parasite or virus in culture. Type of series: cell-based, Mycobacterium tuberculosis. To be noted: for MIC90 / IC90: Mycobacterium tuberculosis, H37RV; for MIC90: read-out: MIC (MIC90); for IC90: read-out: TB-IC90_OD GEOM_MEAN.
Series [3] deals with Vero cells. Put plainly: cells. The conditions noted are these: Chlorocebus sabaeus, read-out: VERO IC50.
Method: as §1

Converted amounts (≈) assume the structure as drawn. “And” between values parts separate entries of the source, which are not always exact repeats. Equal values may be shown once. Read-outs that look alike come from different tables or passages of the source.

Usually IC50 stands for the concentration needed to halve the response being measured. The term chromatographic logD denotes lipophilicity estimated from chromatographic retention. Higher therefore signals higher lipophilicity.

For the compound “3-(2,2-Difluoro-2-phenylethoxy)-5-morpholinothiophene-2-carboxamide [Compound 50]”, the IC50 in the series with Vero cells [1] came out at 95 µM. For the same compound, the “CL mouse MEAN” value in series [2] (mouse) was 19.1 mL/min/g. Moreover, the “MIC (MIC90)” value in the series with M. tuberculosis H37Rv was >20 (2) μM.
Consider “5-(3-Methylmorpholino)-3-phenethoxythiophene-2-carboxamide [Compound 31]”, for which, in the series on Vero cells [1], the IC50 was 77 µM and 79.4 µM. Moreover, the “CL mouse MEAN” value in series [2] (mouse) worked out at 11.19 mL/min/g. In addition, in the series with M. tuberculosis H37Rv, the “MIC (MIC90)” value is listed as >20 (2) μM.
For the compound “5-[2-Methoxyethyl(methyl)amino]-3-(2-phenylethoxy)thiophene-2-carboxamide [Compound 32]”, in the series on Vero cells [1], the IC50 is greater than 100 µM. In addition, in series [2] (mouse), the “CL mouse MEAN” value is reported as 28.42 mL/min/g. For the same compound, the “MIC (MIC90)” value in the series on M. tuberculosis H37Rv is >20 (3) μM.
Take `COC(=O)c1sc(N2CCOCC2)cc1OCCc1ccccc1` [Compound 14, Methyl 5-Morpholino-3-(2-phenylethoxy)thiophene-2-carboxylate]: the IC50 with Vero cells [3] is greater than 100 µM. For the same compound, the Cli mouse in series [2] (female, CD1, mouse, pH 7.4) was 50 mL.min^–1.g^–1. Besides, the MIC90 with M. tuberculosis H37Rv is greater than 20 µM.
On to `NC(=O)c1sccc1OCCc1ccccc1` [Compound 27, 3-(2-Phenylethoxy)thiophene-2-carboxamide], for which, in the series on Vero cells [3], the half-inhibitory concentration (IC50) was greater than 100 µM. This compound also gave a chromatographic logD in “physchem” of 2.05. In series [2] (female, CD1, mouse, pH 7.4), the Cli mouse is reported as 26 mL.min^–1.g^–1. For the same compound, the “CL mouse MEAN” value in series [2] (mouse) is on record as 26 mL/min/g. Also, in the series on M. tuberculosis H37Rv, the MIC90 was greater than 20 µM and the IC90 was greater than 20000 nM.
`COc1ccc(CCOc2cc(N3CCOCC3)sc2C(N)=O)cc1` [Compound 36, 3-[2-(4-Methoxyphenyl)ethoxy]-5-morpholinothiophene-2-carboxamide]: the IC50 in the series on Vero cells [3] was greater than 100 µM. In the series “physchem”, the chromatographic logD was 1.73. For the same compound, the Cli mouse in series [2] (female, CD1, mouse, pH 7.4) came to 5.7 mL.min^–1.g^–1. Also, the “CL mouse MEAN” value in series [2] (mouse) amounted to 5.742 mL/min/g. In the series with M. tuberculosis H37Rv, the MIC90 came to 0.63 µM (≈ 0.228 µg/mL) and the IC90 stood at 570 nM.
Turning to `NC(=O)c1sc(N2CCOCC2)cc1OCCc1ccc(F)cc1` [Compound 40], the IC50 in the series on Vero cells [3] was greater than 100 µM. Further, the chromatographic logD in “physchem” was 1.85. In series [2] (female, CD1, mouse, pH 7.4), the “CL mouse MEAN” value was 12.72 mL/min/g and the Cli mouse is 13 mL.min^–1.g^–1. The MIC90 with M. tuberculosis H37Rv was found to be 0.9 µM (≈ 0.315 µg/mL).
On to `COc1cccc(CCOc2cc(N3CCOCC3)sc2C(N)=O)c1` [Compound 41, 3-[2-(3-Methoxyphenyl)ethoxy]-5-morpholinothiophene-2-carboxamide], for which the IC50 in the series with Vero cells [3] is 89 µM. For the same compound, the chromatographic logD in the series “physchem” turned out to be 1.85. Besides, in series [2] (female, CD1, mouse, pH 7.4), the Cli mouse is on record as 10 mL.min^–1.g^–1. Besides, in series [2] (mouse), the “CL mouse MEAN” value came out at 10.31 mL/min/g. In the series with M. tuberculosis H37Rv, the MIC90 was 1.6 µM (≈ 0.58 µg/mL).
On the same counts, the results for `COc1ccccc1CCOc1cc(N2CCOCC2)sc1C(N)=O` [Compound 42, 3-[2-(2-Methoxyphenyl)ethoxy]-5-morpholinothiophene-2-carboxamide] are greater than 100 µM, 1.95, 26 mL.min^–1.g^–1, 26.42 mL/min/g and greater than 20 µM.
The like results for `NC(=O)c1sc(N2CCOCC2)cc1OCCc1ccncc1` [Compound 43, 5-Morpholino-3-[2-(4-pyridyl)ethoxy]thiophene-2-carboxamide] were, in that order, greater than 100 µM, 0.617, 8 mL.min^–1.g^–1, 8.013 mL/min/g and greater than 20 µM.
The like results for `N#Cc1ccc(CCOc2cc(N3CCOCC3)sc2C(N)=O)cc1` [Compound 44, 3-[2-(4-Cyanophenyl)ethoxy]-5-morpholino-thiophene-2-carboxamid] were, in that order, greater than 100 µM, 1.56, 4.8 mL.min^–1.g^–1, 4.758 mL/min/g and 14 µM (≈ 5 µg/mL).
`NC(=O)c1sc(N2CCOCC2)cc1OCC1CCCO1` (centres unmarked) [Compound 45, 5-Morpholino-3-((tetrahydrofuran-2-yl)methoxy)thiophene-2-carboxamide]: the IC50 in the series on Vero cells [3] was greater than 100 µM. The same compound had a Cli mouse in series [2] (female, CD1, mouse, pH 7.4) of 4.3 mL.min^–1.g^–1. Besides, the “CL mouse MEAN” value in series [2] (mouse) was 4.249 mL/min/g. The MIC90 with M. tuberculosis H37Rv is greater than 20 µM.
Take `NC(=O)c1sc(N2CCOCC2)cc1OCCN1CCOCC1` [Compound 47, 5-Morpholino-3-(2-morpholinoethoxy)thiophene-2-carboxamide]: the IC50 in the series with Vero cells [3] is greater than 100 µM. In the series “physchem”, this compound registered a chromatographic logD of 0.189. This compound also registered a Cli mouse in series [2] (female, CD1, mouse, pH 7.4) of 0.9 mL.min^–1.g^–1. Also, in series [2] (mouse), the “CL mouse MEAN” value is given as 0.8847 mL/min/g. Besides, the MIC90 in the series with M. tuberculosis H37Rv is greater than 20 µM.
On the same counts, the results for `NC(=O)c1sc(N2CCOCC2)cc1OCc1ccccc1` [Compound 48, 3-Benzyloxy-5-morpholinothiophene-2-carboxamide] are greater than 100 µM, 1.52, 14 mL.min^–1.g^–1, 14.31 mL/min/g and greater than 20 µM.
For the compound `NC(=O)c1sc(N2CCOCC2)cc1CCCc1ccccc1` [Compound 49, 5-Morpholino-3-(3-phenylpropyl)thiophene-2-carboxamide], the IC50 in the series on Vero cells [3] was determined as 69 µM. Moreover, in series [2] (female, CD1, mouse, pH 7.4), the Cli mouse came to 20 mL.min^–1.g^–1. The “CL mouse MEAN” value in series [2] (mouse) is given as 20.17 mL/min/g. In addition, in the series on M. tuberculosis H37Rv, the MIC90 stood at 3.5 µM (≈ 1.16 µg/mL).
`NC(=O)c1sc(N2CCOCC2)cc1OCC(O)c1ccccc1` (centres unmarked) [Compound 51, 3-(2-Hydroxy-2-phenylethoxy)-5-morpholinothiophene-2-carboxamine]: the IC50 with Vero cells [3] is greater than 100 µM. Moreover, the chromatographic logD in “physchem” was found to be 1.12. The compound also registered a Cli mouse in series [2] (female, CD1, mouse, pH 7.4) of 3.8 mL.min^–1.g^–1. Moreover, the “CL mouse MEAN” value in series [2] (mouse) is listed as 3.788 mL/min/g. Further, the MIC90 in the series on M. tuberculosis H37Rv was greater than 20 µM.
For `NC(=O)c1sc(N2CCOCC2)cc1OC1CCCc2ccccc21` (centres unmarked) [Compound 52, 5-Morpholino-3-tetralin-1-yloxy-thiophene-2-carboxamide], in the series with Vero cells [3], the concentration for half-maximal inhibition (IC50) amounted to 56 µM. Further, the chromatographic logD in the series “physchem” worked out at 2.22. In series [2] (female, CD1, mouse, pH 7.4), this compound registered a Cli mouse of 5.4 mL.min^–1.g^–1. The “CL mouse MEAN” value in series [2] (mouse) is reported as 5.383 mL/min/g. In the series with M. tuberculosis H37Rv, the MIC90 was greater than 20 µM.
Turning to `NC(=O)c1sc(N2CCOCC2)cc1OC1CCc2ccccc21` (centres unmarked) [Compound 53, 3-Indan-1-yloxy-5-morpholinothiophene-2-carboxamide], the 50% inhibitory concentration (IC50) in the series with Vero cells [3] was greater than 100 µM. The chromatographic logD in the series “physchem” amounted to 1.15. The same compound had a Cli mouse in series [2] (female, CD1, mouse, pH 7.4) of 1.4 mL.min^–1.g^–1. In addition, in series [2] (mouse), the “CL mouse MEAN” value stood at 1.393 mL/min/g. Also, the MIC90 in the series with M. tuberculosis H37Rv was greater than 20 µM.
The like results for `NC(=O)c1ccc(N2CCOCC2)cc1OCCc1ccccc1` [Compound 54, 4-Morpholino-2-phenethoxybenzamide] were, in that order, greater than 100 µM, 2.11, 12 mL.min^–1.g^–1, 12.21 mL/min/g and greater than 20 µM.
Take `NC(=O)c1nc(N2CCOCC2)ccc1OCCc1ccccc1` [Compound 57, 6-Morpholino-3-(2-phenylethoxy)pyridine-2-carboxamide]: in the series on Vero cells [3], the IC50 was greater than 100 µM. The compound further showed a chromatographic logD in the series “physchem” of 1.61. Besides, the Cli mouse in series [2] (female, CD1, mouse, pH 7.4) is listed as 2.3 mL.min^–1.g^–1. In addition, the “CL mouse MEAN” value in series [2] (mouse) is reported as 2.315 mL/min/g. The MIC90 in the series on M. tuberculosis H37Rv is 6.9 µM (≈ 2.26 µg/mL).

(Values after article PMC6089501 (Journal of Medicinal Chemistry, 2018).)
